Assay results taken from patent US20230303540A1 (Merck Sharp & Dohme LLC, priority 2020, published 2023).

Molecular target: GST-tagged truncated human mutant G2019S LRRK2 (Homo sapiens, UniProt Q5S007, G2019S)
Test: LRRK2 G2019S Km ATP LanthaScreen assay
Format: biochemical
Conditions: 134 μM ATP (Km ATP), LRRKtide substrate, mean IC50 values; read-out: LRRK2 pIC50 (converted)
Outline: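 LanthaScreen TR-FRET read with fluorescein-LRRKtide and 134 μM ATP (Km) in Tris pH 8.5/10 mM MgCl2 buffer. The enzyme was preincubated 15 min with compound at room temperature, and the reaction ran 90 min at ambient temperature. Stopped with EDTA plus Tb anti-phospho-LRRKtide antibody; the 520/495 nm ratio gave a 4-parameter logistic IC50, mean of several runs.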

| SMILES | IC50 |
| --- | --- |
| CC1CN(c2cc3nc(Nc4cnn(C5CC5)c4Cl)ncc3cc2Cl)CCN1C1COCC1O (single isomer, unassigned) [Ex-12.6, (3S,4S) or (3R, 4R)-4-((R) or (S)-4-(4-(6-chloro-2-((5-chloro-1-cyclopropyl-1H-pyrazol-4-yl)amino)quinazolin-7-yl)-2-methylpiperazin-1-yl)tetrahydrofuran-3-ol] | 13.6 nM |
| Cc1c(Nc2ncc3cc(Cl)c(N4CCN(C5(C)COCC5O)CC4)cc3n2)cnn1C (single isomer, unassigned) [Ex-3.37, (3R,4R) or (3S,4S) 4-(4-{6-chloro-2-[(1,5-dimethyl-1H-pyrazol-4-yl)amino]quinazolin-7-yl}piperazin-1-yl)-4-methyloxolan-3-ol] | 29.9 nM |
| Cc1c(Nc2ncc3cc(Cl)c(N4CCN(C5(C)COC5)CC4)cc3n2)cnn1CCF [Ex-4.12, 6-chloro-N-[1-(2-fluoroethyl)-5-methyl-1H-pyrazol-4-yl]-7-[4-(3-methyloxetan-3-yl)piperazin-1-yl]quinazolin-2-amine] | 0.625 nM |
| OC1COCC1N1CCN(c2cc3nc(Nc4cnn(C(F)F)c4)ncc3cc2Cl)CC1 (single isomer, unassigned) [Ex-6.47, (3S,4S) or (3R,4R) 4-(4-(6-chloro-2-((1-(difluoromethyl)-1H-pyrazol-4-yl)amino)quinazolin-7-yl)piperazin-1-yl)tetrahydrofuran-3-ol] | 0.85 nM |
| CCn1ncc(Nc2ncc3ccc(N4CCCC4C)cc3n2)c1C (single isomer, unassigned) [Ex-1.9, (S) or (R) N-(1-ethyl-5-methyl-1H-pyrazol-4-yl)-7-(2-methylpyrrolidin-1-yl)quinazolin-2-amine] | 36.1 nM |
| CC1(N2CCN(c3cc4nc(Nc5cnn(C6(C)CC6)c5Cl)ncc4cc3Cl)CC2)COC1 [Ex-4.22, 6-chloro-N-[5-chloro-1-(1-methylcyclopropyl)-1H-pyrazol-4-yl]-7-[4-(3-methyloxetan-3-yl)piperazin-1-yl]quinazolin-2-amine] | 0.625 nM |
| FC1CN(C2CCN(c3cc4nc(Nc5cnn(C6CC6)c5Cl)ncc4cc3Cl)CC2)C1 [Ex-1.27, 6-chloro-N-(5-chloro-1-cyclopropyl-1H-pyrazol-4-yl)-7-[4-(3-fluoroazetidin-1-yl)piperidin-1-yl]quinazolin-2-amine] | 0.778 nM |
| CC1(N2CCN(c3cc4nc(Nc5cnn(C6(C)CC6)c5Cl)ncc4cc3Cl)CC2)CCOC1 (stereo not drawn) [Ex-12.4] | 3.04 nM |
| Cc1c(Nc2ncc3cc(Cl)c(N4CCN(C5COCC5O)CC4)cc3n2)cnn1C(F)F (single isomer, unassigned) [Ex-13.6, (3S,4S) or (3R,4R)-4-(4-(6-chloro-2-((1-(difluoromethyl)-5-methyl-1H-pyrazol-4-yl)amino)quinazolin-7-yl)piperazin-1-yl)tetrahydrofuran-3-ol] | 0.668 nM |
| Cc1c(Nc2ncc3cc(Cl)c(N4CCC(C)(O)CC4)cc3n2)cnn1C1CC1(F)F (single isomer, unassigned) [Ex-6.10, 1-(6-chloro-2-{[1-(2,2-(R) or (S)difluorocyclopropyl)-5-methyl-1H-pyrazol-4-yl]amino}quinazolin-7-yl)-4-methylpiperidin-4-ol] | 0.2 nM |
| CC1(N2CCN(c3cc4nc(Nc5cnn(CC6C[C@H](F)[C@@H](F)C6)c5)ncc4cc3Cl)CC2)COC1 [Ex-4.66, 6-chloro-N-(1-{[(3S,4S)-3,4-difluorocyclopentyl]methyl}-1H-pyrazol-4-yl)-7-[4-(3-methyloxetan-3-yl)piperazin-1-yl]quinazolin-2-amine] | 8.88 nM |
| CC1(O)CCN(c2cc3nc(Nc4cnn([C@H]5CCN(C6COC6)C[C@@H]5F)c4Cl)ncc3cc2Cl)CC1 [Ex-3.6, 1-[6-chloro-2-({5-chloro-1-[(3S,4S)-3-fluoro-1-(oxetan-3-yl)piperidin-4-yl]-1H-pyrazol-4-yl}amino)quinazolin-7-yl]-4-methylpiperidin-4-ol] | 0.625 nM |
| COC1CCC1n1ncc(Nc2ncc3cc(Cl)c(N4CCC(C)(O)CC4)cc3n2)c1C (single isomer, unassigned) [Ex-6.17, 1-[6-chloro-2-({1-[(1R,2S) or (1S,2R)-2-methoxycyclobutyl]-5-methyl-1H-pyrazol-4-yl}amino)quinazolin-7-yl]-4-methylpiperidin-4-ol] | 10.5 nM |
| COCC12CC(n3cc(Nc4ncc5cc(Cl)c(N6CCC7(CCOC7)CC6)cc5n4)cn3)(C1)C2 [Ex-3.33, 6-chloro-N-{1-[3-(methoxymethyl)bicyclo[1.1.1]pentan-1-yl]-1H-pyrazol-4-yl}-7-(2-oxa-8-azaspiro [4.5]decan-8-yl)quinazolin-2-amine] | 1.15 nM |
| Cc1c(Nc2ncc3cc(Cl)c(N4CCC(C)(O)CC4)cc3n2)cnn1C1CC1(F)F (single isomer, unassigned) [Ex-6.9, 1-(6-chloro-2-{[1-(2,2-(R) or (S)difluorocyclopropyl)-5-methyl-1H-pyrazol-4-yl]amino}quinazolin-7-yl)-4-methylpiperidin-4-ol] | 1.79 nM |
| CCn1ncc(Nc2ncc3ccc(N4C(=O)CCC4C)cc3n2)c1C (single isomer, unassigned) [Ex-7.18, (R) or (S) 1-{2-[(1-ethyl-5-methyl-1H-pyrazol-4-yl)amino]quinazolin-7-yl}-5-methylpyrrolidin-2-one] | 8.73 nM |
| CO[C@H]1C[C@H](n2ncc(Nc3ncc4cc(Cl)c(N5CCC(C)(O)CC5)cc4n3)c2C)C1 [Ex-6.13, 1-(6-chloro-2-{[1-(trans-3-methoxycyclobutyl)-5-methyl-1H-pyrazol-4-yl]amino}quinazolin-7-yl)-4-methylpiperidin-4-ol] | 0.976 nM |
| C[C@]1(O)[C@@H]2CC[C@H]1CN(c1cc3nc(Nc4cnn(C5CC5)c4Cl)ncc3cc1Cl)C2 [Ex-1.40, (8-syn)-3-{6-chloro-2-[(5-chloro-1-cyclopropyl-1H-pyrazol-4-yl)amino]quinazolin-7-yl}-8-methyl-3-azabicyclo[3.2.1]octan-8-ol] | 11.2 nM |
| CC1(N2CCN(c3cc4nc(Nc5cnn(C67CC(F)(C6)C7)c5Cl)ncc4cc3Cl)CC2)COCC1O (single isomer, unassigned) [Ex-13.8, (3S,4S) or (3R,4R)4-(4-(6-chloro-2-((5-chloro-1-(3-fluorobicyclo[1.1.1]pentan-1-yl)-1H-pyrazol-4-yl)amino)quinazolin-7-yl)piperazin-1-yl)-4-methyltetrahydrofuran-3-ol] | 1.69 nM |
| CC(C)Nc1ccc2cnc(Nc3cnn(C4CCN(C5(C)COC5)CC4)c3Cl)nc2c1Cl [Ex-3.53, 8-chloro-N~2~-{5-chloro-1-[1-(3-methyloxetan-3-yl)piperidin-4-yl]-1H-pyrazol-4-yl}-N~7~- (propan-2-yl)quinazoline-2,7-diamine] | 6.88 nM |
| C[C@]1(O)[C@@H]2CC[C@H]1CN(c1cc3nc(Nc4cnn(C5CC5)c4)ncc3cc1Cl)C2 [Ex-1.36, (8-syn)-3-{6-chloro-2-[(1-cyclopropyl-1H-pyrazol-4-yl)amino]quinazolin-7-yl}-8-methyl-3-azabicyclo[3.2.1]octan-8-ol] | 6.72 nM |
| Cc1c(Nc2ncc3cc(Cl)c(N4CCN(C5CCCC5C#N)CC4)cc3n2)cnn1C1CC1 (single isomer, unassigned) [Ex-1.6, (3S,4S or 3R,4R)-2-(4-{6-chloro-2-[(1-cyclopropyl-5-methyl-1H-pyrazol-4-yl)amino]quinazolin-7-yl}piperazin-1-yl)cyclopentane-1-carbonitrile] | 1.89 nM |
| CCn1ncc(Nc2ncc3ccc(N4CCCC4C)cc3n2)c1C (single isomer, unassigned) [Ex-1.8, (S) or (R) N-(1-ethyl-5-methyl-1H-pyrazol-4-yl)-7-(2-methylpyrrolidin-1-yl)quinazolin-2-amine] | 16 nM |
| OC1CN(C2CCN(c3cc4nc(Nc5cnn(C6CC6)c5Cl)ncc4cc3Cl)CC2)C1 [Ex-1.37, 1-(1-{6-chloro-2-[(5-chloro-1-cyclopropyl-1H-pyrazol-4-yl)amino]quinazolin-7-yl}piperidin-4-yl)azetidin-3-ol] | 1.71 nM |
| CC1(N2CCN(c3cc4nc(Nc5cnn(C6(C(F)(F)F)CC6)c5Cl)ncc4cc3Cl)CC2)COC1 [Ex-3.24, 6-chloro-N-{5-chloro-1-[1-(trifluoromethyl)cyclopropyl]-1H-pyrazol-4-yl}-7-[4-(3-methyloxetan-3-yl)piperazin-1-yl]quinazolin-2-amine] | 3.68 nM |
| CO[C@H]1C[C@@H](n2ncc(Nc3ncc4cc(Cl)c(N5CCC(C)(O)CC5)cc4n3)c2C)C1 [Ex-6.14, 1-(6-chloro-2-{[1-(cis-3-methoxycyclobutyl)-5-methyl-1H-pyrazol-4-yl]amino}quinazolin-7-yl)-4-methylpiperidin-4-ol] | 1.65 nM |
| O[C@@H]1COC[C@@H]1N1CCN(c2cc3nc(Nc4cnn(C56CC(C5)C6)c4Cl)ncc3cc2Cl)CC1 (single isomer, unassigned) [Ex-13.2, (3S,4S) or (3R,4R)-4-(4-(2-((1-(bicyclo[1.1.1]pentan-1-yl)-5-chloro-1H-pyrazol-4-yl)amino)-6-chloroquinazolin-7-yl)piperazin-1-yl)tetrahydrofuran-3-ol] | 3.81 nM |
| Cc1c(Nc2ncc3cc(Cl)c(N4CCN(C5(C)COCC5O)CC4)cc3n2)cnn1C (single isomer, unassigned) [Ex-3.43, (3R,4R) or (3S,4S) 4-(4-{6-chloro-2-[(1,5-dimethyl-1H-pyrazol-4-yl)amino]quinazolin-7-yl}piperazin-1-yl)-4-methyloxolan-3-ol] | 0.438 nM |
| Cc1c(Nc2ncc3cc(Cl)c(N4CCN(C5COCC5O)CC4)cc3n2)cnn1C1CC1(F)F (single isomer, unassigned) [Ex-6.43, (3S,4S) or (3R,4R) 4-[4-(6-chloro-2-{[1-(2,2-(R) or (S)difluorocyclopropyl)-5-methyl-1H-pyrazol-4-yl]amino}quinazolin-7-yl)piperazin-1-yl]oxolan-3-ol] | 7.92 nM |
| CC1(N2CCN(c3cc4nc(Nc5ccn(CC(F)(F)F)n5)ncc4cc3Cl)CC2)COC1 [Ex-4.63, 6-chloro-7-[4-(3-methyloxetan-3-yl)piperazin-1-yl]-N-[1-(2,2,2-trifluoroethyl)-1H-pyrazol-3-yl]quinazolin-2-amine] | 28.3 nM |
